Patent US20130245355A1, “3-HETARYL-SUBSTITUTED PYRROLO[2,3 B]PYRIDINE DERIVATIVES AS PDK1 INHIBITORS” (MERCK PATENT GMBH, priority 2010, published 2013)

Tests used:
[1] = target: T1, PDK1 (Homo sapiens, UniProt O15530); assay: Test for the inhibition of PDK1 (flashplate, 33P-ATP); settings: His6-PDK1 (1-50) 3.4 nM, 4 μM ATP, 30° C., 60 min; read-out: IC50 [PDK1] biochemical
T1 construct: His6 (N)
T1 sequence (O15530 51-556 limits assumed): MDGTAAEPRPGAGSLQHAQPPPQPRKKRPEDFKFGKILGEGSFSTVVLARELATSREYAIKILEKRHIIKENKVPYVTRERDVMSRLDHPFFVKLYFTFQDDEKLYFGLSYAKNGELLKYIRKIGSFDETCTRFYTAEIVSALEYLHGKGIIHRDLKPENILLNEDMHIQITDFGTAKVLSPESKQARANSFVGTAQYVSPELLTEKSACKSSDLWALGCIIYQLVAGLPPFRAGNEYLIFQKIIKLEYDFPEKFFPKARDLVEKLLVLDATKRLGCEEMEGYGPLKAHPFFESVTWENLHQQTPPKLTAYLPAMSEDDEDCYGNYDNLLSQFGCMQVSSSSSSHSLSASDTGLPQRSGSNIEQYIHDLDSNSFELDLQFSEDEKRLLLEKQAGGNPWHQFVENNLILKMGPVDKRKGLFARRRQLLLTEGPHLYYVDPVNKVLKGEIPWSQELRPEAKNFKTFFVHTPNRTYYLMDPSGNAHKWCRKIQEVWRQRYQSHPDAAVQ
In short: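 His6-PDK1 (1-50) (3.4 nM) with biotinylated peptide substrate (400 nM) and 4 μM ATP plus ^33P-ATP, 60 min at 30° C; incorporated radioactivity counted. Blank from 100 nM staurosporin subtracted, activity expressed as % of compound-free control, IC50 derived from dilution series.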

[2] = target: T2, PDK1 (Homo sapiens, UniProt O15530); assay: Cellular testing of PDK1 kinase inhibitors in PC3 cells (Luminex, phospho-T308-PKB); type: cell-based; settings: 30 min, serum-free
T2 construct: endogenous in cells; host or cells: PC3 cells
T2 sequence (O15530 1-556): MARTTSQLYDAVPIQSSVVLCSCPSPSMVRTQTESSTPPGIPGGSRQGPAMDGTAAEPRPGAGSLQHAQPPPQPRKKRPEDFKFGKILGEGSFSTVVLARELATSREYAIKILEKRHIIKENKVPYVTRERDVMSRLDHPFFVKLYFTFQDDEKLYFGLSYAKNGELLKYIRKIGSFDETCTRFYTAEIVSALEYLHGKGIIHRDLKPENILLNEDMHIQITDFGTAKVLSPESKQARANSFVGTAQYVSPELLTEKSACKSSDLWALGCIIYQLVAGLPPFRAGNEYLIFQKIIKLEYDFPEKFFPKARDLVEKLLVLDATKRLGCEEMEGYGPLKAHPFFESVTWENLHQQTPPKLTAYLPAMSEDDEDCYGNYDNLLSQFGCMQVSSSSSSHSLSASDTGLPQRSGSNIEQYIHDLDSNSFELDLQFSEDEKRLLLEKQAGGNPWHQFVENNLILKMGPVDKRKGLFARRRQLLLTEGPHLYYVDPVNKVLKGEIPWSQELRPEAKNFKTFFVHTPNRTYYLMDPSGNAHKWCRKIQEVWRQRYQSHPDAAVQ
In short: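 PC3 cells were treated 30 min serum-free with 7-concentration compound series, lysed, and phospho-T308-PKB measured by Luminex bead assay (anti-total PKB capture, phospho-T308 detection). Blank was 10 μM staurosporine; maximum was 0.3% DMSO; IC50 derived from percent of control.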

Cn1cc(-c2cnc3[nH]cc(-c4n[nH]c(C5(c6ccc(Cl)nc6)CC5)n4)c3c2)cn1 [A122, 3-{5-[1-(6-chloropyridin-3-yl)cyclopropyl]-1H-1,2,4-triazol-3-yl}-5-(1-methyl-1H-pyrazol-4-yl)-1H-pyrrolo[2,3-b]pyridine]
IC50 [1]: 1000 to 10000 nM
IC50 [2]: 1000 to 10000 nM

COc1ccc(C2(c3nc(-c4c[nH]c5ncc(-c6cnn(C)c6)cc45)n[nH]3)CC2)cn1 [A127, 3-{5-[1-(6-methoxypyridin-3-yl)cyclopropyl]-1H-1,2,4-triazol-3-yl}-5-(1-methyl-1H-pyrazol-4-yl)-1H-pyrrolo[2,3-b]pyridine]
IC50 [1]: 1000 to 10000 nM
IC50 [2]: 1000 to 10000 nM

Cn1cc(-c2cnc3[nH]cc(-c4cc(C(C)(O)c5ccccc5F)[nH]n4)c3c2)cn1 (stereo not drawn) [A18]
IC50 [1]: 0.5 to 1000 nM
IC50 [2]: 1000 to 10000 nM

Cn1cc(-c2cnc3[nH]cc(-c4cc(C(O)c5ccccc5)on4)c3c2)cn1 (stereo not drawn) [A75]
IC50 [1]: 0.5 to 1000 nM
IC50 [2]: 0.5 to 1000 nM

COC(c1ccccc1)c1nnc(-c2c[nH]c3ncc(-c4cnn(C)c4)cc23)o1 (stereo not drawn) [A81]
IC50 [1]: 0.5 to 1000 nM
IC50 [2]: 1000 to 10000 nM

CC(O)(c1cc(-c2c[nH]c3ncc(-c4cnn(CCO)c4)cc23)no1)c1ccccc1F (stereo not drawn) [A24]
IC50 [1]: 0.5 to 1000 nM
IC50 [2]: 0.5 to 1000 nM

Cn1cc(-c2cnc3[nH]cc(-c4cc(C(O)c5ccccc5)nn4CCO)c3c2)cn1 (stereo not drawn) [A107]
IC50 [1]: 0.5 to 1000 nM
IC50 [2]: 1000 to 10000 nM

Cn1cc(-c2cnc3[nH]cc(-c4nnc(C(O)c5ccccc5)o4)c3c2)cn1 (stereo not drawn) [A29]
IC50 [1]: 0.5 to 1000 nM
IC50 [2]: 1000 to 10000 nM

Cn1cc(-c2cnc3[nH]cc(-c4noc(C(C)(O)c5ccccc5)n4)c3c2)cn1 (stereo not drawn) [A31]
IC50 [1]: 0.5 to 1000 nM
IC50 [2]: 0.5 to 1000 nM
